Here are results for 12 compounds from article PMC3682544, “Structural Analysis of Collagen Type I Interactions with Human Fibronectin Reveals a Cooperative Binding Mode” (The Journal of Biological Chemistry, 2013).

Like-named read-outs stand apart in the source and are kept apart here. Square brackets hold non-standard residues; d marks the D form. Ends that are not written are not given here. Peptide text beside a SMILES is read from it. * marks the point of attachment. 5FAM = O=C1OC2(c3ccc(O)cc3Oc3cc(O)ccc32)c2ccc(C(=O)*)cc21; Hyp = O=C(O)[C@@H]1C[C@@H](O)CN1

In experiment [1] the target is T1, GBD (gelatin-binding domain, ^6FnI^1–2FnII^7–9FnI, residues 305–608) of human FN (Homo sapiens, UniProt P02751, H307D/N528Q/R534K).
T1 construct: FN fragments corresponding to residues 305–608 (GBD); made in house
T1 sequence (P02751 305-608 H307D/N528Q/R534K): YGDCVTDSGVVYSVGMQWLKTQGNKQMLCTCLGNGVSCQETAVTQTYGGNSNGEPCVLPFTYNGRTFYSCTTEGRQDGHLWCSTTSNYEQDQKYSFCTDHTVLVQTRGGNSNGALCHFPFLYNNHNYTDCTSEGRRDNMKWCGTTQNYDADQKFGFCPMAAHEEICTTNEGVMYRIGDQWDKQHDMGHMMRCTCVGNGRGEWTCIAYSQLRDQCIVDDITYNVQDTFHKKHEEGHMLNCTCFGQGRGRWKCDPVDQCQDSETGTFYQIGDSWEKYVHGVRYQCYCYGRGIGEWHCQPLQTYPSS
The experiment can be described thus: Fluorescence polarization titrations of 5-carboxyfluorescein-labelled collagen peptides with GBD. The following applies: FA: fluorescence polarization, 75 nM N-terminal 5-carboxyfluorescein peptide, increasing protein, PBS, 25 °C, single binding model. An excerpt: (§1) FN fragments corresponding to residues 305–608 (GBD), 305–515 (^6FnI^1–2FnII^7FnI), and 516–608 (^8–9FnI) and bearing single amino acid substitutions to improve solubility and protein yields (H307D, N528Q, and R534K) were produced as described previously ([7], [26], [32]). Synthetic collagen peptides were purchased from GL Biochem (Shanghai, China); their sequences are provided in Table 1, and unless fluorescently tagged, they included a C-terminal tyrosine residue for UV determination of peptide concentration. Fluorescent peptides had 5-carboxyfluorescein attached to the N-terminal amine group.
Fluorescence polarization measurements were performed at 25 °C in PBS using SpectraMax M5 (Molecular Devices) and PHERAstar FS (BMG Labtech) fluorometers. […] Differences in fluorescence polarization were fit using a single binding model in the program Origin (OriginLab) ([33]).
Background: Polarisation of emitted light reports the rotation of a fluorescent probe.

Experiment [2] deals with fibronectin modules 8-9FnI, residues 516-608 (human) (UniProt P02751). The experiment can be described thus: NMR titration; 1H-15N HSQC of 8-9FnI, collagen peptide titrated in, PBS (20 mM Na2HPO4 pH 7.2, 150 mM NaCl), 25 °C; single binding event.
Experiment [3] concerns the target T2, ^8–9FnI (FN residues 516–608) (Homo sapiens, UniProt P02751, N528Q/R534K).
T2 construct: and 516–608 (^8–9FnI); made in house
The experiment in a line: ^1H-^15N heteronuclear single quantum correlation NMR titrations with ^8–9FnI. The class given is binding. To be noted: NMR ^1H-^15N HSQC titration, PBS pH 7.2, 25 °C; for Kd: single binding event fit.
Source text: as §1
(§2) NMR spectrometers used superconducting magnets (Oxford Instruments) at 950- and 500-MHz proton resonance frequencies (home-built or Bruker AVANCE II consoles and room temperature or cryogenic probe heads, respectively). Spectra were recorded in PBS (20 mM Na2HPO4 (pH 7.2) and 150 mM NaCl) with 1% 4,4-dimethyl-4-silapentane-1-sulfonic acid as a calibration standard. Experiment temperatures were optimized to avoid resonance broadening due to intermediate exchange phenomena and corresponded to 25 °C (^8–9FnI) or 37 °C (^6FnI^1–2FnII^7FnI). Sequential chemical shift assignments were performed earlier ([7], [26]). Analysis of spectral perturbations upon protein interactions and determination of equilibrium parameters were performed as described ([33]).

For experiment [4], the target named is T2, ^8–9FnI (FN residues 516–608). To be noted: NMR titration; cited from earlier work. An excerpt: TABLE 1 KD values for collagen I peptide binding to FN fragments α1 and α2 chain numbering is taken to begin at the estimated start of the helical region. “O” in peptide sequences denotes 4-hydroxyproline. NMR, ^1H-^15N heteronuclear single quantum correlation NMR titrations; FA, fluorescence polarization titrations using N-terminal 5-carboxyfluorescein labeling. In titrations where no binding was | column: KD / ^8–9FnI || To firmly establish the elusive molecular interplay between the GBD and the most common collagen (type I), we first need to understand the exact nature of the binding site. […] At a distance of ∼1/10 (D-period 1, peptides AN and CN) or 3/4 (D-period 4, peptides BN and DN) from the N terminus of the triple hel ... || FIGURE 3. GBD-binding sites on collagen type I. A, schematic representation of the collagen type I α1 and α2 chains and the two FN-binding sites at 1/10 and 3/4 sequence distance from the collagen N terminus. ^8–9FnI-binding sites (peptides AN, BN, CN, and DN) are shown in blue, with the sequences immediately C-terminal thereof (peptides AC, BC, CC, and DC) shown in red. Dissociation constants are indicated. Highlighted in green is the only site where the two GBD subfragments, ^6FnI^1–2FnII^7FnI and ^8–9FnI, bind collagen type I cooperatively. B, amino acid sequences of peptides A–D. Conserved ...
Target sequence in this assay (P02751 516-608 N528Q/R534K): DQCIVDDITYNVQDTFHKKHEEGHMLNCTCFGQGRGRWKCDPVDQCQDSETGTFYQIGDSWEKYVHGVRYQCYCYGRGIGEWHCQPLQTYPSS

For experiment [5], the target named is T3, ^6FnI^1–2FnII^7FnI (FN residues 305–515) (Homo sapiens, UniProt P02751, H307D).
T3 construct: 305–515 (^6FnI^1–2FnII^7FnI); made in house
T3 sequence (P02751 305-515 H307D): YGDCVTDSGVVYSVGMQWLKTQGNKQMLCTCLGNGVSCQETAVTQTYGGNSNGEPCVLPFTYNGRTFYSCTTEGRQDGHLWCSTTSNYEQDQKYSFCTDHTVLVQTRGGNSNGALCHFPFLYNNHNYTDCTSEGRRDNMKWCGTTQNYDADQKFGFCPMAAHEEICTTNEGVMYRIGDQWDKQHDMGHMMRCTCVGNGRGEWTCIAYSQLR
The experiment in a line: ^1H-^15N heteronuclear single quantum correlation NMR titrations with ^6FnI^1–2FnII^7FnI. The class given is binding. The following applies: NMR ^1H-^15N HSQC titration, chemical shift analysis, PBS pH 7.2, 37 °C.
Source text: as §1, §2

Experiment [6] addresses collagen type I alpha2 peptide C, Q72-G118, 5-carboxyfluorescein labelled. The experiment in a line: fluorescence polarisation; 75 nM 5-carboxyfluorescein-labelled peptide, increasing concentrations of protein, 96-well plates, 25 °C, PBS; single binding model.
Experiment [7] has as its target collagen type I alpha1 peptide B, G772-G820, 5-carboxyfluorescein labelled. Described as above.
Experiment [8] addresses collagen type I alpha2 peptide D, G772-G820, 5-carboxyfluorescein labelled. The description is as above.
Experiment [9] addresses collagen type I alpha1 peptide A, G70-G118, 5-carboxyfluorescein labelled. The experiment is described as above.

The Kd is the equilibrium constant for the complex coming apart. Take “5FAM-GPQGIAGQRGVVGL[Hyp]GQRGERGF[Hyp]GL[Hyp]GPSGE[Hyp]GKQGPSGASGERGP[Hyp]G [B]”: binding in experiment [1] was put at a Kd of 15.2 ± 2 µM. On to “collagen type I alpha1 peptide BN with Val783 changed to serine, G778-G799 with C-terminal tyrosine”, for which the Kd in experiment [2] worked out at 97 µM. Consider “5FAM-GPQGARGL[Hyp]GTAGL[Hyp]GMKGHRGFSGLDGAKGDAGPAGPKGE[Hyp]GS[Hyp]GENG [A]”, for which, in experiment [1], binding was characterised by a dissociation constant (Kd) of 97.9 ± 8.2 µM.

As for `CC(C)C[C@H](NC(=O)CNC(=O)[C@H](CO)NC(=O)[C@@H](NC(=O)CNC(=O)[C@H](CCCNC(=N)N)NC(=O)[C@H](CCC(N)=O)NC(=O)CN)C(C)C)C(=O)N1C[C@H](O)C[C@H]1C(=O)NCC(=O)N[C@@H](CCC(N)=O)C(=O)N[C@@H](CCCNC(=N)N)C(=O)NCC(=O)N[C@@H](CCC(=O)O)C(=O)N[C@@H](CCCNC(=N)N)C(=O)NCC(=O)N[C@@H](Cc1ccccc1)C(=O)N1C[C@H](O)C[C@H]1C(=O)NCC(=O)N[C@@H](CC(C)C)C(=O)N1C[C@H](O)C[C@H]1C(=O)NCC(=O)N[C@@H](Cc1ccc(O)cc1)C(=O)O` [BN-S783V] (H-GQRGVSGL[Hyp]GQRGERGF[Hyp]GL[Hyp]GY-OH), in [3], the “KD ^8–9FnI (NMR interaction regime, in words)” value is “fast interaction regime” and the Kd was determined as 96.5 ± 11.4 µM. “5FAM-GPQGLLGA[Hyp]GILGL[Hyp]GSRGERGL[Hyp]GVAGAVGEPGPLGIAGP[Hyp]GARGP[Hyp]G [D]” came in with a Kd in experiment [1] of 5.8 ± 1 µM. Take “DN: Synthetic collagen type I α2 peptide 778–799 with C-terminal tyrosine (GAPGILGLPGSRGERGLPGVAGY; 4-hydroxyproline at peptide positions 3, 9 and 18 (printed O); C-terminal Tyr added for UV quantification)”: in experiment [4], the Kd was 8 ± 2 µM.

Regarding `CSCC[C@H](NC(=O)CNC(=O)[C@@H]1C[C@@H](O)CN1C(=O)[C@H](CC(C)C)NC(=O)CNC(=O)[C@H](C)NC(=O)[C@@H](NC(=O)CNC(=O)[C@@H]1C[C@@H](O)CN1C(=O)[C@H](CC(C)C)NC(=O)CN)[C@@H](C)O)C(=O)N[C@@H](CCCCN)C(=O)NCC(=O)N[C@@H](Cc1c[nH]cn1)C(=O)N[C@@H](CCCNC(=N)N)C(=O)NCC(=O)N[C@@H](Cc1ccccc1)C(=O)N[C@@H](CO)C(=O)NCC(=O)N[C@@H](CC(C)C)C(=O)N[C@@H](CC(=O)O)C(=O)NCC(=O)N[C@@H](Cc1ccc(O)cc1)C(=O)O` [AN] (H-GL[Hyp]GTAGL[Hyp]GMKGHRGFSGLDGY-OH), the Kd in experiment [3] came to 143 ± 17.3 µM. Take “5FAM-QGARGF[Hyp]GT[Hyp]GL[Hyp]GFKGIRGHNGLDGLKGQ[Hyp]GA[Hyp]GVKGE[Hyp]GA[Hyp]GENG [C]”: the affinity in [1], expressed as Kd, was 25.6 ± 2.6 µM. As to `CC(C)C[C@H](NC(=O)CNC(=O)[C@H](CC(=O)O)NC(=O)[C@H](CC(C)C)NC(=O)CNC(=O)[C@H](CC(N)=O)NC(=O)[C@H](Cc1c[nH]cn1)NC(=O)CN)C(=O)N[C@@H](CCCCN)C(=O)NCC(=O)N[C@@H](CCC(N)=O)C(=O)N1C[C@H](O)C[C@H]1C(=O)NCC(=O)N[C@@H](C)C(=O)N1C[C@H](O)C[C@H]1C(=O)NCC(=O)N[C@H](C(=O)N[C@@H](CCCCN)C(=O)NCC(=O)N[C@@H](CCC(=O)O)C(=O)N1C[C@H](O)C[C@H]1C(=O)NCC(=O)N[C@@H](C)C(=O)N1C[C@H](O)C[C@H]1C(=O)NCC(=O)N[C@@H](CCC(=O)O)C(=O)N[C@@H](CC(N)=O)C(=O)NCC(=O)N[C@@H](Cc1ccc(O)cc1)C(=O)O)C(C)C` [CC] (H-GHNGLDGLKGQ[Hyp]GA[Hyp]GVKGE[Hyp]GA[Hyp]GENGY-OH), in [5], the Kd turned out to be 248 ± 11.6 µM. With “gelatin-binding domain (GBD) of human fibronectin, 6FnI1-2FnII7-9FnI, residues 305-608 (from UniProt P02751 305-608) (domain or fragment)”, the dissociation constant Kd in experiment [6] was found to be 26 µM; in experiment [7], 15 µM; in [8] it was 6 µM; in experiment [9], 98 µM.

In the case of “BN: Synthetic collagen type I α1 peptide 775–799 with C-terminal tyrosine (GLPGQRGVVGLPGQRGERGFPGLPGY; 4-hydroxyproline at peptide positions 3, 12, 21 and 24 (printed O); its leading GLO differs from the native GIA in peptide B. The text and PDB 3)”, in experiment [4], the equilibrium dissociation constant (Kd) was 5 ± 1 µM. With `CC[C@H](C)[C@H](NC(=O)CNC(=O)[C@H](CCCCN)NC(=O)[C@H](Cc1ccccc1)NC(=O)CNC(=O)[C@@H]1C[C@@H](O)CN1C(=O)[C@H](CC(C)C)NC(=O)CNC(=O)[C@@H]1C[C@@H](O)CN1C(=O)[C@@H](NC(=O)CNC(=O)[C@@H]1C[C@@H](O)CN1C(=O)[C@H](Cc1ccccc1)NC(=O)CN)[C@@H](C)O)C(=O)N[C@@H](CCCNC(=N)N)C(=O)NCC(=O)N[C@@H](Cc1c[nH]cn1)C(=O)N[C@@H](CC(N)=O)C(=O)NCC(=O)N[C@@H](CC(C)C)C(=O)N[C@@H](CC(=O)O)C(=O)NCC(=O)N[C@@H](Cc1ccc(O)cc1)C(=O)O` [CN] (H-GF[Hyp]GT[Hyp]GL[Hyp]GFKGIRGHNGLDGY-OH), the Kd in experiment [3] is 2000 ± 200 µM.
